# The source made the active and inactive calls. No cut-off for these calls is given here.
# Tests used:
# [1] = biological target: Transcription factor MafF (Mus musculus) (UniProt O54791); test: Induction of degradation of MAFF in mouse RAW264.7 cells at 2.5 to 20 uM measured after 24 hrs; assay type: cell-based; conditions: dose 2.5-20 µM
# [2] = biological target: Transcription factor MafF (Mus musculus) (UniProt O54791); test: Induction of degradation of MAFF in mouse RAW264.7 cells assessed as reduction in MAFF expression at 20 uM measured after 24 hrs; assay type: cell-based
# RAW264.7 [3] = test: Induction of autophagy in LPS induced mouse RAW264.7 cells assessed as increase in LC3B-II expression at 5 to 40 uM by Western blot analysis; assay type: functional, cell-based; conditions: dose 5-40 µM
# RAW264.7 [4] = test: Antiinflammatory activity in LPS induced mouse RAW264.7 cells assessed as upregulation of heme oxygenase I expression at 5 to 20 uM; assay type: functional, cell-based; conditions: dose 5-20 µM
# RAW264.7 [5] = test: Antiinflammatory activity in LPS induced mouse RAW264.7 cells assessed as inhibition of […] phosphorylation at 5 to 20 uM by immunofluorescence analysis; assay type: functional, cell-based; conditions: dose 5-20 µM
# RAW264.7 [6] = test: Cytotoxicity against mouse RAW264.7 cells assessed as reduction in cell viability incubated for 24 hrs by CCK-8 method; assay type: functional, cell-based; conditions: RAW264.7, 24 h
# RAW264.7 [7] = test: Antiinflammatory activity in LPS induced mouse RAW264.7 cells assessed as reduction in inducible nitric oxide synthase by immunofluorescence analysis; assay type: functional, cell-based; conditions: dose 5-20 µM
# [8] = biological target: Transcription factor MafF (Mus musculus) (UniProt O54791); test: Induction of degradation of MAFF in mouse RAW264.7 cells at 20 uM incubated for 24 hrs in presence of MG132 by Western blot analysis; assay type: cell-based
# RAW264.7 [9] = test: Antiinflammatory activity in LPS induced mouse RAW264.7 cells assessed as inhibition of ROS production by DCFH-DA staining based fluorescence assay; assay type: functional, cell-based; conditions: dose 5-20 µM
# RAW264.7 [10] = test: Antiinflammatory activity in LPS induced mouse RAW264.7 cells assessed as inhibition of nuclear translocation of NF-kappaB at 20 uM by immunofluorescence analysis; assay type: functional, cell-based
# [11] = biological target: Transcription factor MafF (Mus musculus) (UniProt O54791); test: Induction of degradation of MAFF in mouse RAW264.7 cells at 20 uM measured after 24 hrs; assay type: cell-based
# [12] = biological target: Transcription factor MafF (Mus musculus) (UniProt O54791); test: Induction of degradation of MAFF in mouse RAW264.7 cells at 40 uM measured after 24 hrs; assay type: cell-based
# RAW264.7 [13] = test: Antiinflammatory activity in LPS induced mouse RAW264.7 cells assessed as upregulation of Nrf2 expression at 5 to 20 uM; assay type: functional, cell-based; conditions: dose 5-20 µM
# RAW264.7 [14] = test: Antiinflammatory activity in LPS induced mouse RAW264.7 cells assessed as inhibition of NF-kappaB phosphorylation at 5 to 20 uM by immunofluorescence analysis; assay type: functional, cell-based; conditions: dose 5-20 µM
# RAW264.7 [15] = test: Induction of autophagy in LPS induced mouse RAW264.7 cells assessed as increase in p62 expression at 5 to 40 uM by Western blot analysis; assay type: functional, cell-based; conditions: dose 5-40 µM
# RAW264.7 [16] = test: Anti-inflammatory activity in mouse RAW264.7 cells assessed as inhibition of LPS-induced NO production incubated for 3 hrs followed by LPS addition and measured after 24 hrs; assay type: functional, cell-based
# RAW264.7 [17] = test: Cytotoxicity against mouse RAW264.7 cells assessed as reduction in cell viability at 25 uM incubated for 24 hrs by CCK-8 method; assay type: functional, cell-based
# Transcription factor MafF (Mus musculus), sequence (O54791 whole entry): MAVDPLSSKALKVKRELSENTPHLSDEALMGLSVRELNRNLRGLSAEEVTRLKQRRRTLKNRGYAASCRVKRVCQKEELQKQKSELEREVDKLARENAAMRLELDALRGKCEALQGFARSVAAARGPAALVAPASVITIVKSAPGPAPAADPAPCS
IC50 (RAW264.7 [16]),SMILES,IC50 (RAW264.7 [6]),also measured
5.3 µM,C=C1CC[C@H]2[C@@H](/C=C(\C)C(=O)[C@@]3(O)C[C@H](C)[C@H](O)[C@@H]3[C@H]1OCc1cn(CCOCCOCCNC(=O)[C@H](CC(C)C)NC(=O)[C@@H](O)[C@@H](Cc3ccccc3)NC(=O)OC(C)(C)C)nn1)C2(C)C,> 50 µM,Activity [1]: Active; Activity [2]: Active; Activity (RAW264.7 [3]): Active; Activity (RAW264.7 [4]): Active; Activity (RAW264.7 [5]): Active; Activity (RAW264.7 [7]): Dose-Dependent Effect; Activity [8]: inactive; Activity (RAW264.7 [9]): Dose-Dependent Effect; Activity (RAW264.7 [10]): Active; Activity [11]: Active; Activity [12]: inactive; Activity (RAW264.7 [13]): Active; Activity (RAW264.7 [14]): Active; Activity (RAW264.7 [15]): Active
> 20 µM,C=C1CC[C@H]2[C@@H](/C=C(\C)C(=O)[C@@]3(O)C[C@H](C)[C@H](O)[C@@H]3[C@H]1OCc1cn(CCOCCOCCOCCNC(=O)CN3CCN(C(=O)N4C(c5ccc(OC)cc5OC(C)C)=N[C@H](c5ccc(Cl)cc5)[C@@H]4c4ccc(Cl)cc4)CC3=O)nn1)C2(C)C,,Activity (RAW264.7 [17]): Active
> 20 µM,C=C1CC[C@H]2[C@@H](/C=C(\C)C(=O)[C@@]3(O)C[C@H](C)[C@H](O)[C@@H]3[C@H]1OCc1cn(CC(=O)N[C@H](Cc3ccccc3)[C@H](O)C(=O)N[C@@H](CC(C)C)C(=O)OC)nn1)C2(C)C,> 50 µM,
> 20 µM,C=C1CC[C@H]2[C@@H](/C=C(\C)C(=O)[C@@]3(O)C[C@H](C)[C@H](O)[C@@H]3[C@H]1OCc1cn(CCCC(=O)N[C@H](Cc3ccccc3)[C@H](O)C(=O)N[C@@H](CC(C)C)C(=O)OC)nn1)C2(C)C,> 50 µM,
> 20 µM,C=C1CC[C@H]2[C@@H](/C=C(\C)C(=O)[C@@]3(O)C[C@H](C)[C@H](O)[C@@H]3[C@H]1OCc1cn(CCOCCOCCOCCNC(=O)[C@H](CC(C)C)NC(=O)[C@@H](O)[C@@H](Cc3ccccc3)NC(=O)OC(C)(C)C)nn1)C2(C)C,> 50 µM,
> 20 µM,C=C1CC[C@H]2[C@@H](/C=C(\C)C(=O)[C@@]3(O)C[C@H](C)[C@H](O)[C@@H]3[C@H]1OCc1cn(CCCCCC(=O)N[C@H](Cc3ccccc3)[C@H](O)C(=O)N[C@@H](CC(C)C)C(=O)OC)nn1)C2(C)C,> 50 µM,
> 20 µM,C=C1CC[C@H]2[C@@H](/C=C(\C)C(=O)[C@@]3(O)C[C@H](C)[C@H](O)[C@@H]3[C@H]1OCc1cn(CCOCCOCCOCCOCCNC(=O)CN3CCN(C(=O)N4C(c5ccc(OC)cc5OC(C)C)=N[C@H](c5ccc(Cl)cc5)[C@@H]4c4ccc(Cl)cc4)CC3=O)nn1)C2(C)C,,Activity (RAW264.7 [17]): Active
> 20 µM,C=C1CC[C@H]2[C@@H](/C=C(\C)C(=O)[C@@]3(O)C[C@H](C)[C@H](O)[C@@H]3[C@H]1OCc1cn(CCOCCOCCOCCOCCNC(=O)[C@H](CC(C)C)NC(=O)[C@@H](O)[C@@H](Cc3ccccc3)NC(=O)OC(C)(C)C)nn1)C2(C)C,> 50 µM,

# The next lines start with the molecule.
SMILES,IC50 (RAW264.7 [16]),IC50 (RAW264.7 [6]),also measured
C=C1CC[C@H]2[C@@H](/C=C(\C)C(=O)[C@@]3(O)C[C@H](C)[C@H](O)[C@@H]3[C@H]1OCc1cn(CC(=O)N[C@H](C(=O)N3C[C@H](O)C[C@H]3C(=O)N[C@H](C)c3ccc(-c4scnc4C)cc3)C(C)(C)C)nn1)C2(C)C,> 20 µM,> 50 µM,
C=C1CC[C@H]2[C@@H](/C=C(\C)C(=O)[C@@]3(O)C[C@H](C)[C@H](O)[C@@H]3[C@H]1OCc1cn(CCCC(=O)N[C@H](C(=O)N3C[C@H](O)C[C@H]3C(=O)NCc3ccc(-c4scnc4C)cc3)C(C)(C)C)nn1)C2(C)C,> 20 µM,> 50 µM,
C=C1CC[C@H]2[C@@H](/C=C(\C)C(=O)[C@@]3(O)C[C@H](C)[C@H](O)[C@@H]3[C@H]1OCc1cn(CCCC(=O)N[C@H](C(=O)N3C[C@H](O)C[C@H]3C(=O)N[C@H](C)c3ccc(-c4scnc4C)cc3)C(C)(C)C)nn1)C2(C)C,> 20 µM,> 50 µM,
C=C1CC[C@H]2[C@@H](/C=C(\C)C(=O)[C@@]3(O)C[C@H](C)[C@H](O)[C@@H]3[C@H]1OCc1cn(CCCCCC(=O)N[C@H](C(=O)N3C[C@H](O)C[C@H]3C(=O)N[C@H](C)c3ccc(-c4scnc4C)cc3)C(C)(C)C)nn1)C2(C)C,> 20 µM,> 50 µM,
C=C1CC[C@H]2[C@@H](/C=C(\C)C(=O)[C@@]3(O)C[C@H](C)[C@H](O)[C@@H]3[C@H]1OCc1cn(CCCCCC(=O)N[C@H](C(=O)N3C[C@H](O)C[C@H]3C(=O)NCc3ccc(-c4scnc4C)cc3)C(C)(C)C)nn1)C2(C)C,> 20 µM,,Activity (RAW264.7 [17]): Active
C=C1CC[C@H]2[C@@H](/C=C(\C)C(=O)[C@@]3(O)C[C@H](C)[C@H](O)[C@@H]3[C@H]1OCc1cn(CC(=O)N[C@H](C(=O)N3C[C@H](O)C[C@H]3C(=O)NCc3ccc(-c4scnc4C)cc3)C(C)(C)C)nn1)C2(C)C,> 20 µM,> 50 µM,
C=C1CC[C@H]2[C@@H](/C=C(\C)C(=O)[C@@]3(O)C[C@H](C)[C@H](O)[C@@H]3[C@H]1OCc1cn(CCOCCOCCNC(=O)CN3CCN(C(=O)N4C(c5ccc(OC)cc5OC(C)C)=N[C@H](c5ccc(Cl)cc5)[C@@H]4c4ccc(Cl)cc4)CC3=O)nn1)C2(C)C,> 20 µM,,Activity (RAW264.7 [17]): Active
